Counter-ions that a name gives are not always drawn.
What was measured:
[1] = molecular target: T1, GST-tagged truncated LRRK2 (Homo sapiens, UniProt Q5S007); assay: LRRK2 Assay, Format 2 (Lantha Screen), WT; type: biochemical; details: geometric mean of 2-4 determinations unless otherwise indicated (a: >=5; b: single determination)
T1 construct: GST-tagged truncated LRRK2 from Invitrogen (Cat # PV4874); GST; purchased Invitrogen PV4874
Experimental: (§1) LRRK2 kinase activity was measured using Lantha Screen technology from Invitrogen. GST-tagged truncated LRRK2 from Invitrogen (Cat # PV4874) was incubated with a fluorescein-labeled peptide substrate based upon ezrin/radixin/moesin (ERM), also known as LRRKtide (Invitrogen cat # PR8976A), in the presence of a dose response of compound. Upon completion, the assay was stopped and detected with a terbium labeled anti-phospho-ERM antibody (Invitrogen, cat # PR8975A). […] Using Echo acoustic dispensing, 60 nL of compound was transferred to a low volume Corning 384-well assay plate. 3 μL of a working solution of substrate (200 nM LRRKtide, […]) prepared in assay buffer (50 mM HEPES, pH 7.5, 3 mM MgCl2, with 2 mM DTT and 0.01% Brij35 added fresh) was added to the 60 nL compound assay plate. The kinase reaction was started with […] of a working solution of LRRK2 enzyme at a concentration of […]. The final reaction concentrations were 100 nM LRRKtide, […], […] LRRK2 enzyme and a compound dose response with a top dose of 3 mM. The reaction was allowed to progress at room temperature for 30 minutes and then stopped with the addition of […] of detection buffer (20 mM Tris pH 7.6, 0.01% NP-40, 6 mM EDTA with 2 nM terbium labeled anti-phospho-ERM). After an incubation of 1 hour at room temperature, the plate was read on an Envision with an excitation wavelength of 340 nm and a reading emission at both 520 nm and 495 nm. The ratio of the 520 nm and 495 nm emission was used to analyze the data. Inhibition of mutant G2019S LRRK2 (Invitrogen cat # PV4881) was measured in the exact same method. All final concentrations of substrate ATP and enzyme were the same.

mutant G2019S LRRK2 = mutant G2019S LRRK2 (Homo sapiens, UniProt Q5S007, G2019S); assay: LRRK2 Assay, Format 2 (Lantha Screen), G2019S mutant; type: biochemical; parameters: purchased Invitrogen PV4881; details: geometric mean of 2-4 determinations unless otherwise indicated (a: >=5; b: single determination); read-out: LRRK2, Format 2 G2019S IC50
Experimental: as §1

T1 sequence (Q5S007 970-2527 limits assumed): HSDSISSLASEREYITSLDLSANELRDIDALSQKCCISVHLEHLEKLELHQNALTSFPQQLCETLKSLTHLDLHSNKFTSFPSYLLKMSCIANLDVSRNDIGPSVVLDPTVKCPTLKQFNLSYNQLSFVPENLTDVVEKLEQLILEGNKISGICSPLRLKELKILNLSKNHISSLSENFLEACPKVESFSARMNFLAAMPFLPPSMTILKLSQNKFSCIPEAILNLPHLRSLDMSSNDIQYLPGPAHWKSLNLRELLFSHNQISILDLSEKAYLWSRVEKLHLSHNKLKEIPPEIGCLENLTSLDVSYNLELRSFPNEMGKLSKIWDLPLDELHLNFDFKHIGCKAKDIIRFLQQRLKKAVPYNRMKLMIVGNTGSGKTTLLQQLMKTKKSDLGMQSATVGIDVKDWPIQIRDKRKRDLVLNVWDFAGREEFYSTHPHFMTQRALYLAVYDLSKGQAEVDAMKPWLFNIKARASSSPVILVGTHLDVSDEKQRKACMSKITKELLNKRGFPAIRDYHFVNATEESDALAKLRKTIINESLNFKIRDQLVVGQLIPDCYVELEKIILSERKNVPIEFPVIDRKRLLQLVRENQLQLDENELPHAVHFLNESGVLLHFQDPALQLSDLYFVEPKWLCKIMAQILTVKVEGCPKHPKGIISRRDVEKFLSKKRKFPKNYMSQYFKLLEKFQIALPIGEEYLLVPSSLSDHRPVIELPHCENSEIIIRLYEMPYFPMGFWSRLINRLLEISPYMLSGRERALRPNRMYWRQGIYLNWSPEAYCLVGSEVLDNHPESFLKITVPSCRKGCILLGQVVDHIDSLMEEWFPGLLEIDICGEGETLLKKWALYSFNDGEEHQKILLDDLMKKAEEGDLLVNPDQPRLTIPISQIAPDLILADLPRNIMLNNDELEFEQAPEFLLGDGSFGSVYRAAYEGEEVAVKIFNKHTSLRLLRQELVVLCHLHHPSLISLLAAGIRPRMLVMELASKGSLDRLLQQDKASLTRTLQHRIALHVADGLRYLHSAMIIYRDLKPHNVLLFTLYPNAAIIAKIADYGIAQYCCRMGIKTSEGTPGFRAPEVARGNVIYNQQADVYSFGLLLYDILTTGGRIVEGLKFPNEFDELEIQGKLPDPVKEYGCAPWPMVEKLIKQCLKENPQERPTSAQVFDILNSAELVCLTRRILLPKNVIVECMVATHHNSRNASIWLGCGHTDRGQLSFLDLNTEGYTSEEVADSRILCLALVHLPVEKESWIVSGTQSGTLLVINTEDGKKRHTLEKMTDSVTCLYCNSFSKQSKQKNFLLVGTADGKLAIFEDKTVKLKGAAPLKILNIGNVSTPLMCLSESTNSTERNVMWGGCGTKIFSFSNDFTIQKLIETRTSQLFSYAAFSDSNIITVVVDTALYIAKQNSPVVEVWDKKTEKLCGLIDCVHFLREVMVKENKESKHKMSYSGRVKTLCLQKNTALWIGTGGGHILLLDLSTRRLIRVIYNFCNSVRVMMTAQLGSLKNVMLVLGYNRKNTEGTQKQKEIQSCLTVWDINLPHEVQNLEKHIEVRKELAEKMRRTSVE
mutant G2019S LRRK2, sequence (Q5S007 970-2527 G2019S limits assumed): as the sequence (Q5S007 970-2527 limits assumed) above, with G1050S counted along it

For `CC1(C)CC(n2c(Cn3cnnn3)nc3cnc4ccc(Cl)cc4c32)CCO1` (centres unmarked) [Example 150, 8-chloro-1-(2,2-dimethyltetrahydro-2H-pyran-4-yl)-2-(1H-tetrazol-1-ylmethyl)-1H-imidazo[4,5-c]quinoline, formate salt], which IC50 [1] is on record?
The IC50 was 11.6 nM.

What about the IC50 (mutant G2019S LRRK2) of the same compound?
The IC50 was 12.1 nM.

What does the source list for `C[C@@H]1C[C@H](n2c(Cc3nnnn3C)nc3cnc4ccc(Cl)cc4c32)CCO1` [Example 128, 8-chloro-1-[(2R,4R)-2-methyltetrahydro-2H-pyran-4-yl]-2-[(1-methyl-1H-tetrazol-5-yl)methyl]-1H-imidazo[4,5-c]quinoline, formate salt]?
IC50 [1]: 7.18 nM; IC50 (mutant G2019S LRRK2): 6.95 nM

What does the source list for `N#Cc1ccc2ncc3nc(Cn4cc(C5CC5)nn4)n([C@@H]4CC[C@H](F)C4)c3c2c1` (single isomer, unassigned; ent-1) [Example 202, 2-[(4-cyclopropyl-1H-1,2,3-triazol-1-yl)methyl]-1-(cis-3-fluorocyclopentyl)-1H-imidazo[4,5-c]quinoline-8-carbonitrile, ENT-1]?
IC50 [1]: 15.5 nM; IC50 (mutant G2019S LRRK2): 20.4 nM

`Cc1nn2cc(Cc3nc4cnc5ccc(C#N)cc5c4n3CC(C)(F)F)nc2s1` [Example 226, 1-(2,2-difluoropropyl)-2-[(2-methylimidazo[2,1-b][1,3,4]thiadiazol-6-yl)methyl]-1H-imidazo[4,5-c]quinoline-8-carbonitrile] was tested. Which IC50 [1] did it give?
The IC50 was 4.54 nM.

And the IC50 (mutant G2019S LRRK2)?
Its IC50 is 5.82 nM.

With `C[C@@H]1C[C@H](n2c(C(F)c3ccon3)nc3cnc4ccc(Cl)cc4c32)CCO1` (single isomer, unassigned) [Example 237] as the compound, how does the IC50 [1] read?
The IC50 was 4 nM.

What about the IC50 (mutant G2019S LRRK2) of the same compound?
The IC50 was 3.92 nM.

Which IC50 [1] does the source give for `COCc1cn(Cc2nc3cnc4ccc(C#N)cc4c3n2[C@@H]2CC[C@H](F)C2)nn1` (single isomer, unassigned; ent-1) [Example 132, 1-(cis-3-fluorocyclopentyl)-2-{[4-(methoxymethyl)-1H-1,2,3-triazol-1-yl]methyl}-1H-imidazo[4,5-c]quinoline-8-carbonitrile, ENT-1] here?
The IC50 was 7.49 nM.

What about the IC50 (mutant G2019S LRRK2) of the same compound?
The IC50 was 10.8 nM.

`Cc1cnc(Cc2nc3cnc4ccc(C#N)cc4c3n2C2CCOC(C)(C)C2)cn1` (single isomer, unassigned; ent-1) [Example 215, 1-(2,2-dimethyltetrahydro-2H-pyran-4-yl)-2-[(5-methylpyrazin-2-yl)methyl]-1H-imidazo[4,5-c]quinoline-8-carbonitrile, ENT-1] was tested. Which IC50 [1] did it give?
The IC50 was 13.4 nM.

And the IC50 (mutant G2019S LRRK2)?
The IC50 was 13.9 nM.

How did the IC50 [1] turn out when `Cc1cn(Cc2nc3cnc4ccc(C#N)cc4c3n2C2CCCC2(F)F)nn1` (single isomer, unassigned; ent-1) [Example 196, 1-(2,2-difluorocyclopentyl)-2-[(4-methyl-1H-1,2,3-triazol-1-yl)methyl]-1H-imidazo[4,5-c]quinoline-8-carbonitrile, ENT-1] was run?
Its IC50 is 18.8 nM.

What about the IC50 (mutant G2019S LRRK2) of the same compound?
Its IC50 is 15.8 nM.

Which results are given for `COc1cnn(Cc2nc3cnc4ccc(C#N)cc4c3n2CC(C)(F)F)c1` [Example 210, 1-(2,2-difluoropropyl)-2-[(4-methoxy-1H-pyrazol-1-yl)methyl]-1H-imidazo[4,5-c]quinoline-8-carbonitrile]?
IC50 [1]: 7.04 nM; IC50 (mutant G2019S LRRK2): 7.63 nM

How did the IC50 [1] turn out when `COc1ccc(Cc2nc3cnc4ccc(C#N)cc4c3n2[C@@H]2CCO[C@H](C)C2)nc1` [Example 96, 2-[(5-Methoxypyridin-2-yl)methyl]-1-[(2R,4R)-2-methyltetrahydro-2H-pyran-4-yl]-1H-imidazo[4,5-c]quinoline-8-carbonitrile] was run?
The IC50 was 6.31 nM.

What about the IC50 (mutant G2019S LRRK2) of the same compound?
The IC50 was 4.65 nM.

`Cc1ccc(Cc2nc3cnc4ccc(C#N)cc4c3n2[C@@H]2CCO[C@H](C)C2)nc1` [Example 232, 2-[(5-methylpyridin-2-yl)methyl]-1-[(2R,4R)-2-methyltetrahydro-2H-pyran-4-yl]-1H-imidazo[4,5-c]quinoline-8-carbonitrile] was tested. Which IC50 [1] did it give?
Its IC50 is 8.48 nM.

And the IC50 (mutant G2019S LRRK2)?
Its IC50 is 7.26 nM.

How did the IC50 [1] turn out when `Cc1cc(Cc2nc3cnc4ccc(C#N)cc4c3n2[C@@H](C)CF)no1` [Example 243, 1-[(2S)-1-fluoropropan-2-yl]-2-[(5-methyl-1,2-oxazol-3-yl)methyl]-1H-imidazo[4,5-c]quinoline-8-carbonitrile, formate salt] was run?
Its IC50 is 48.7 nM.

And the IC50 (mutant G2019S LRRK2)?
Its IC50 is 85.9 nM.

For `Cc1cnc(Cc2nc3cnc4ccc(C#N)cc4c3n2C2CCC(F)C2)cn1` (single isomer, unassigned; ent-2) [Example C89, 1-(cis-3-fluorocyclopentyl)-2-[(5-methylpyrazin-2-yl)methyl]-1H-imidazo[4,5-c]quinoline-8-carbonitrile, ENT-2], which IC50 [1] is on record?
Its IC50 is 18.8 nM.

What about the IC50 (mutant G2019S LRRK2) of the same compound?
Its IC50 is 20.5 nM.

Which results are given for `Cc1cn(Cc2nc3cnc4ccc(Cl)cc4c3n2[C@H]2CC[C@@H](F)C2)nn1` (single isomer, unassigned) [Example 93, 8-Chloro-1-(cis-3-fluorocyclopentyl)-2-[(4-methyl-1H-1,2,3-triazol-1-yl)methyl]-1H-imidazo[4,5-c]quinoline]?
IC50 [1]: 5.62 nM; IC50 (mutant G2019S LRRK2): 8.18 nM

For `CC(F)(F)Cn1c(Cc2cscn2)nc2cnc3ccc(C#N)cc3c21` [Example 224, 1-(2,2-difluoropropyl)-2-(1,3-thiazol-4-ylmethyl)-1H-imidazo[4,5-c]quinoline-8-carbonitrile], which IC50 [1] is on record?
Its IC50 is 9.15 nM.

What about the IC50 (mutant G2019S LRRK2) of the same compound?
Its IC50 is 11.1 nM.

With `C[C@@H]1C[C@H](n2c(C(F)(F)c3ccccn3)nc3cnc4ccc(Cl)cc4c32)CCO1` [Example 214, 8-chloro-2-[difluoro(pyridin-2-yl)methyl]-1-[(2R,4R)-2-methyltetrahydro-2H-pyran-4-yl]-1H-imidazo[4,5-c]quinoline, formate salt] as the compound, how does the IC50 [1] read?
The IC50 was 7.67 nM.

And the IC50 (mutant G2019S LRRK2)?
Its IC50 is 9.67 nM.

What does the source list for `CO[C@H]1C[C@@H](n2c(Cn3cc(C)cn3)nc3cnc4ccc(Cl)cc4c32)C1` [Example 180, 8-chloro-1-[(1s,3s)-3-methoxycyclobutyl]-2-[(4-methyl-1H-pyrazol-1-yl)methyl]-1H-imidazo[4,5-c]quinoline]?
IC50 [1]: 30.4 nM; IC50 (mutant G2019S LRRK2): 29.9 nM

`C[C@@H]1C[C@H](n2c(Cc3ccn(C)n3)nc3cnc4ccc(Cl)cc4c32)CCO1` [Example 163, 8-chloro-2-[(1-methyl-1H-pyrazol-3-yl)methyl]-1-[(2R,4R)-2-methyltetrahydro-2H-pyran-4-yl]-1H-imidazo[4,5-c]quinoline] was tested. Which IC50 [1] did it give?
Its IC50 is 7.01 nM.

What about the IC50 (mutant G2019S LRRK2) of the same compound?
Its IC50 is 7.25 nM.

`Cc1cc(Cc2nc3cnc4ccc(C#N)cc4c3n2CC(F)F)no1` [Example 228, 1-(2,2-difluoroethyl)-2-[(5-methyl-1,2-oxazol-3-yl)methyl]-1H-imidazo[4,5-c]quinoline-8-carbonitrile] was tested. Which IC50 [1] did it give?
Its IC50 is 46.7 nM.

What about the IC50 (mutant G2019S LRRK2) of the same compound?
The IC50 was 69.4 nM.

Which IC50 [1] does the source give for `Cc1cc(Cc2nc3cnc4ccc(C#N)cc4c3n2C2CCCC(F)(F)C2)no1` (centres unmarked) [Example 244, 1-(3,3-difluorocyclohexyl)-2-[(5-methyl-1,2-oxazol-3-yl)methyl]-1H-imidazo[4,5-c]quinoline-8-carbonitrile, formate salt] here?
The IC50 was 79.4 nM.

And the IC50 (mutant G2019S LRRK2)?
The IC50 was 89.7 nM.

With `C[C@@H]1C[C@H](n2c(Cn3nccn3)nc3cnc4ccc(Cl)cc4c32)CCO1` [Example 161, 8-chloro-1-[(2R,4R)-2-methyltetrahydro-2H-pyran-4-yl]-2-(2H-1,2,3-triazol-2-ylmethyl)-1H-imidazo[4,5-c]quinoline, formate salt] as the compound, how does the IC50 [1] read?
The IC50 was 6.39 nM.

What about the IC50 (mutant G2019S LRRK2) of the same compound?
Its IC50 is 6.94 nM.

What does the source list for `C[C@@H]1C[C@H](n2c(Cc3nc4ccccc4o3)nc3cnc4ccc(C#N)cc4c32)CCO1` [Example 153, 2-(1,3-benzoxazol-2-ylmethyl)-1-[(2R,4R)-2-methyltetrahydro-2H-pyran-4-yl]-1H-imidazo[4,5-c]quinoline-8-carbonitrile, formate salt]?
IC50 [1]: 6.04 nM; IC50 (mutant G2019S LRRK2): 5.34 nM

For `N#CCc1nc2cnc3ccc(F)cc3c2n1[C@@H]1CC[C@H](F)C1` (single isomer, unassigned; ent-1) [Example 170, {8-fluoro-1-(cis-3-fluorocyclopentyl)-1H-imidazo[4,5-c]quinolin-2-yl}acetonitrile, ENT-1], which IC50 [1] is on record?
The IC50 was 64.4 nM.

And the IC50 (mutant G2019S LRRK2)?
The IC50 was 106 nM.

What does the source list for `CC(F)(F)Cn1c(Cn2ccc(C3CC3)n2)nc2cnc3ccc(C#N)cc3c21` [Example 225, 2-[(3-cyclopropyl-1H-pyrazol-1-yl)methyl]-1-(2,2-difluoropropyl)-1H-imidazo[4,5-c]quinoline-8-carbonitrile]?
IC50 [1]: 7.23 nM; IC50 (mutant G2019S LRRK2): 8.7 nM

How did the IC50 [1] turn out when `C[C@@H]1C[C@H](n2c(Cc3cc4n(n3)CCC4)nc3cnc4ccc(Cl)cc4c32)CCO1` [Example 166, 8-chloro-2-(5,6-dihydro-4H-pyrrolo[1,2-b]pyrazol-2-ylmethyl)-1-[(2R,4R)-2-methyltetrahydro-2H-pyran-4-yl]-1H-imidazo[4,5-c]quinoline, trifluoroacetate salt] was run?
The IC50 was 7.35 nM.

And the IC50 (mutant G2019S LRRK2)?
The IC50 was 7.38 nM.

Reference: US10039753B2, “Imidazo[4,5-c]quinoline and imidazo[4,5-c][1,5]naphthyridine derivatives as LRRK2 inhibitors” (Pfizer Inc., priority 2015, dated 2018)
